In patent US11116774B2, “Modulators of toll-like receptors for the treatment of HIV” (Gilead Sciences, Inc., priority 2014, dated 2021):
Values joined by “and” are separate entries in the source; they are usually repeats but may differ in a detail not shown here. Identical values can stand only once.

How the values were obtained:
[1] = test system: HIV in PBMCs from HIV-infected donors on suppressive cART; assay: Activation of HIV by Example 49 ex vivo in PBMCs (Example 210); format: cell-based, human; settings: N = 18 donors, day 4
Experimental: PBMCs from 18 HIV-infected donors (Donor IDs 152-169) on suppressive cART were isolated, as described previously in Materials and Methods (PBMC Isolation), and immediately added to tissue culture plates pre-equilibrated at 37° C. with media containing DMSO or the compound of Example 49 (GS-9620) at 0.1 uM or 1.0 uM. At day 4 after treatment, cell-free culture supernatants were collected and HIV viral RNA was quantitated using the automated COBAS® AmpliPrep/COBAS® TaqMan® HIV-1 Test, v2.0 system (Roche Diagnostics, Indianapolis, Ind.), as described previously in Materials and Methods (HIV-1 Activation Assay). Geometric mean fold HIV activations from three independent wells for each donor and each condition were expressed as a ratio of HIV-1 RNA copies/ml detected in culture supernatants from TLR7 agonist treated and DMSO treated wells. Fold HIV activation values were plotted using GraphPad Prism software (GraphPad, San Diego, Calif.) and can be seen in FIG. 7. The dashed line indicates 2-fold induction.

[2] = test system: simian immunodeficiency virus (SIV); assay: TLR7 modulating compound in SIV+ viremic rhesus at chronic set point: plasma viral load by quantitative RT-PCR (Example 203); format: in vivo, rhesus macaques
Experimental: Five chronically infected, SIV^+ rhesus macaques were either treated with the compound of Example 4 (n=3 animals) or with dosing vehicle (placebo, n=2 animals) in a multiple-dose, dose escalation, placebo controlled study. […] The animals were not administered combination antiretroviral therapy during any part of the study.
The animals were dosed once weekly by oral gavage (via nasogastric tube) with either the compound of Example 4 or placebo. Three animals were administered the compound of Example 4, prepared as described in Example 201. The first week, 1 mL/kg of the 0.1 mg/mL formulation was administered, corresponding to a dose of 0.1 mg/kg. The second week, 1 mL/kg of the 0.2 mg/mL formulation was administered, corresponding to a dose of 0.2 mg/kg. On weeks three through five, 1 mL/kg of the 0.3 mg/mL formulation was administered, corresponding to a dose of 0.3 mg/kg. Each week, two animals (placebo group) were administered the dosing vehicle as described in Example 201 at 1 mL/kg.
Each formulation of Example 201 or dosing vehicle only (placebo) was used fresh and thawed to room temperature prior to dosing. Plasma viral loads (expressed as SIV RNA copies per mL of plasma) were determined by quantitative RT-PCR of the SIV RNA measuring the gag gene transcripts at various times throughout the study for animals administered the compound of Example 4 and the placebo animals. […]

proviral SIV DNA = assay: Proviral SIV DNA in PBMCs, lymph node and colon by qPCR (Example 205); format: in vivo, rhesus macaques
Text: A whole blood sample, an inguinal lymph node sample, and a colon pinch biopsy sample were taken from the animals dosed with the compound of Example 4 and from the animals dosed with the vehicle of Example 201 (placebo group) in the study described in Example 204. These samples were taken prior to initiation of dosing and two weeks after the last dose; all samples were taken while animals were on cART. Total DNA was isolated from each sample using commercially available blood and tissue DNA extraction kits. Proviral SIV DNA levels were measured by quantitative PCR (qPCR) using probe-primer sets specific to the SIV gag gene and normalization for cellular input by measuring the glyceraldehyde 3-phosphate dehydrogenase (GAPDH) gene levels. […] In one of the compound treated animals (166-08), there was only a noted decrease in the proviral DNA content in the PBMCs, a minor increase in lymph node, and a minor decrease in the colon. In the vehicle-dosed placebo control animals, however, there were slight to moderate increases in two of three animals in proviral SIV DNA in the PBMC and colon samples, and relatively stable levels in lymph node samples.

[3] = test system: peripheral CD8 lymphocytes (CD3+CD8+CD4−); assay: Peripheral lymphocyte activation, CD69 by flow cytometry: CD8 lymphocytes (Example 206); format: in vivo, rhesus macaque
Text: (§1) During the course of treatment with the compound of Example 4 as described in Example 204, peripheral lymphocyte activation was monitored in the groups dosed with the compound of Example 4 or the dosing vehicle of Example 201 (placebo), by measuring the expression of the early activation marker CD69 on various lymphocyte subsets by flow cytometry methodology. This methodology was used to quantify the percentage of immune cell subsets expressing the early activation marker. Standard data acquisition techniques were employed on a flow cytometer and by the use of antibodies conjugated to fluorescent molecules where the antibodies recognize rhesus macaque cell surface proteins on various immune cell subsets. In animals dosed with the compound of Example 4, whole blood samples were collected for each dose at various time points both at pre- and post-administration of compound. Total PBMCs were stained in the whole blood samples using antibodies that were chosen to be reactive to rhesus CD3, CD4, CD8, NKG2A, CD16 and CD56, each conjugated to different fluorescent probes to delineate CD3+CD4+CD8− lymphocytes, CD3+CD4−CD8+ lymphocytes and CD3-CD8+ NKG2A+CD16+ CD56+ NK cells. The flow cytometry data presented herein are from animals treated with the compound of Example 4.

[4] = test system: peripheral NK cells (CD3-CD8+ NKG2A+CD16+CD56+); assay: Peripheral lymphocyte activation, CD69 by flow cytometry: NK cells (Example 206); format: in vivo, rhesus macaque
Text: as §1

CCCCOc1nc(N)c2c(n1)N(Cc1cccc(CN3CCCC3)c1)CC(=O)N2 [Example 49]
Fold geometric mean (HIV activation) ([1]; 100 nM): 9.3 fold
Fold range (HIV activation) ([1]; 100 nM): 2.7-26.6 fold
N (%) with ≥2-fold activation ([1]; 100 nM): 10 (56) N (%)
Fold geometric mean (HIV activation) ([1]; 1,000 nM): 6.5 fold
Fold range (HIV activation) ([1]; 1,000 nM): 2.0-21.5 fold
N (%) with ≥2-fold activation ([1]; 1,000 nM): 11 (61) N (%)
Fold geometric mean (HIV activation) ([1]; 100 and/or 1,000 nM): 9.1 fold
Fold range (HIV activation) ([1]; 100 and/or 1,000 nM): 2.0-26.6 fold
N (%) with ≥2-fold activation ([1]; 100 and/or 1,000 nM): 13 (72) N (%)

CCCCOc1nc(N)c2c(n1)N(Cc1ccc(CN3CCCC3)cc1)CC(=O)N2 [Example 4]
plasma viral load ([2]; animal with the lowest chronic set point, undetectable for at least 100 days following the last dose (FIG. 1)): < 50 RNA copies/mL
sustained decrease in viral load set point compared to pre-dose ([2]; second animal, log10 RNA copies, maintained at least 100 days following the last dose (FIG. 2)): approximately 1 log order
Proviral SIV DNA, PBMC, Pre (proviral SIV DNA; SIV+ rhesus on cART, prior to initiation of dosing, one line per animal): 150 copies/10^6 cells and 68 copies/10^6 cells and 160 copies/10^6 cells and 120 copies/10^6 cells
Proviral SIV DNA, PBMC, Post (proviral SIV DNA; SIV+ rhesus on cART, two weeks after the last dose, one line per animal): 100 copies/10^6 cells and 34 copies/10^6 cells and 89 copies/10^6 cells and 3 copies/10^6 cells
Proviral SIV DNA, Colon, Pre (proviral SIV DNA; colon pinch biopsy, on cART, prior to initiation of dosing, one line per animal): 230 copies/10^6 cells and 80 copies/10^6 cells and 150 copies/10^6 cells and 110 copies/10^6 cells
Proviral SIV DNA, Colon, Post (proviral SIV DNA; colon pinch biopsy, on cART, two weeks after the last dose, one line per animal): 210 copies/10^6 cells and 3 copies/10^6 cells (3×)
Proviral SIV DNA, Lymph node, Pre (proviral SIV DNA; inguinal lymph node, on cART, prior to initiation of dosing, one line per animal): 270 copies/10^6 cells and 31 copies/10^6 cells and 210 copies/10^6 cells and 130 copies/10^6 cells
Proviral SIV DNA, Lymph node, Post (proviral SIV DNA; inguinal lymph node, on cART, two weeks after the last dose, one line per animal): 280 copies/10^6 cells and 3 copies/10^6 cells (2×) and 84 copies/10^6 cells
change of proviral SIV DNA, pre- vs post-treatment, across PBMC, inguinal lymph node and colon (proviral SIV DNA; within each animal, on cART): clear decrease in proviral DNA content for three of four animals
mean maximum percent change in CD69 expression on CD8 lymphocytes ([3]; all subsequent 0.3 mg/kg doses): 15.5%
mean maximum percent change in CD69 expression on CD8 lymphocytes ([3]; dose 0.1 mg/kg, any time point (rise 24 to 72 hours post-dose), pre-dose range 3.3-12.6%): 7.8%
mean maximum percent change in CD69 expression on CD8 lymphocytes ([3]; dose 0.2 mg/kg, pre-dose range 3.0-15.7%): 9.5%
mean maximum percent change in CD69 expression on CD8 lymphocytes ([3]; first dose of 0.3 mg/kg, pre-dose range 5.0-14.4%): 17.3%
mean maximum percent change in CD69 expression on NK cells ([4]; dose 0.1 mg/kg, any time point (rise by 24 to 72 hours post-dose), pre-dose range 89-95%): 6.5%
mean maximum percent change in CD69 expression on NK cells ([4]; dose 0.2 mg/kg, pre-dose range 83-95%): 9.5%
mean maximum percent change in CD69 expression on NK cells ([4]; first dose of 0.3 mg/kg, pre-dose range 84-95%): 8.3%
mean maximum percent change in CD69 expression on NK cells ([4]; second dose of 0.3 mg/kg, pre-dose range 82-97%): 8.7%
